Experimental data reported in US8168197B2, “External composition for skin containing Scrophularia buergeriana miq. extract and the use thereof for the skin moisturizing cosmetics” (Amorepacific Corporation, priority 2007, dated 2012).

Test system: human skin
Experiment: Production of epidermal lipid (total ceramide) on human skin
Assay type: in vivo
Details: 5% test material, 20 μl on human forearm
Procedure: In order to evaluate the effects of the Scrophularia buergeriana Miq. and Poria cocos Wolf extracts on an increase in the synthesis of lipid on the human skin, the following test was carried out. The composition of the test material consisted of 0.5% of Carbopol ETD 2020, 0.45% of TEA 0.45%, 5% test material and the balance of deionized water. On the forearm of each of 12 adult men and women, a region having a size corresponding to the size of a 50-ml polypropylene conical tube was marked, and then 20 μl of each of control groups, the Scrophularia buergeriana Miq. extract and the Scrophularia buergeriana Miq. extract/Poria cocos Wolf extract mixture was applied on the subjects. Herein, the subjects were divided into two groups, lipids were extracted from the subjects at day 3 and day 11 in the following manner, and the extracted lipid were analyzed. Specifically, the forearm was washed with service water, and then subjected to tape stripping one time with Scotch® 810 Magic tape. Then, 1 ml of a mixture of cyclohexane/ethanol (4:1) was added to the forearm using a 50-ml cut polypropylene conical tube as a reservoir and shaken for about 1 minute, and was then transferred into a fresh tube. […]
After the TLC plate was developed, the size of each band was measured at a wavelength of 570 nm using a TLC Scanner-II densitometer (CAMAG). […]

With OCC(O)CO [Glycerin] the “production of ceramide relative to the untreated group taken as 100%, 3 days after treatment” value (3 days after treatment) was 102% and the “production of ceramide relative to the untreated group taken as 100%, 11 days after treatment” value (11 days after treatment) was 94%.
